Measured values reported in patent US9248584B2, “High-temperature spray drying process and apparatus” (Bend Research, Inc., priority 2010, dated 2016).

What was measured:
Log P value = format: physicochemical
[1] = Room temperature solubility in methanol; format: physicochemical; conditions: room temperature (20° C. to 30° C.)

- logP (Log P value): 3.7
- solubility in methanol [1]: 0.3 wt %
Structure (SMILES): CCC(=O)O[C@]1(C(=O)SCF)[C@H](C)C[C@H]2[C@@H]3C[C@H](F)C4=CC(=O)C=C[C@]4(C)[C@@]3(F)[C@@H](O)C[C@@]21C [Active Agent 1, S-(fluoromethyl) 6α,9-difluoro-11β,17-dihydroxy-16α-methyl-3-oxoandrosta-1,4-diene-17β-carbothioate, 17-propionate]
